Results on 22 compounds are retold here after patent US20070135499A1 (Aerie Pharmaceuticals, Inc., priority 2005, published 2007).

Test [1] has as its system porcine trabecular meshwork (PTM) cells. The test is described as follows: Cell-based porcine trabecular meshwork (PTM) assay, actin-fiber length. Set-up: key: +++: More active than control-; ++: As active as control; +: Less active than control; −: Inactive. The note with it: activity at 50 μM as compared to control. As to the method: Cell-based porcine trabecular meshwork (PTM) assay.
The anterior section of porcine eyes was harvested within 4 hours post-mortem. The iris and ciliary body were removed and trabecular meshwork cells were harvested by blunt dissection. Finely minced trabecular meshwork tissue was plated into collagen-coated 6-well plates in Medium-199 containing 20% fetal bovine serum (FBS). After two passages at confluence, cells were transferred to low-glucose DMEM containing 10% FBS. Cells were used between […].
Cells were plated into fibronectin-coated, glass multiwell plates the day before compound testing under standard culture conditions. Compounds were added to cells in the presence of 1% FBS-containing DMEM and 1% DMSO. When compounds were incubated with the cells for the duration determined to be optimal, the media and compound is removed and cells fixed for 20 minutes in 3% methanol-free paraformaldehyde. Cells were rinsed twice with phosphate buffered saline (PBS) and cells are permeabilized with 0.5% Triton X-100 for two minutes. Following an additional two washes with PBS, F-actin was stained with Alexa-fluor 488-labelled phalloidin and nuclei are stained with DAPI.
Data was reduced to the mean straight actin-fiber length and normalized to DMSO-treated control cells (100%) and 50 μM Y-27632 (0%). Y-27632 is a rho-kinase inhibitor known to result in the depolymerization of F-actin in these cells.
The cellular assay described in Reference Example Two was used to test some of the foregoing Examples 1-101, the results of which are presented below. The results are provided in terms activity at 50 μM as compared to control

A further test concerns the target T1, hGRK-2 (Homo sapiens, UniProt P25098).
T1 sequence (P25098 1-689): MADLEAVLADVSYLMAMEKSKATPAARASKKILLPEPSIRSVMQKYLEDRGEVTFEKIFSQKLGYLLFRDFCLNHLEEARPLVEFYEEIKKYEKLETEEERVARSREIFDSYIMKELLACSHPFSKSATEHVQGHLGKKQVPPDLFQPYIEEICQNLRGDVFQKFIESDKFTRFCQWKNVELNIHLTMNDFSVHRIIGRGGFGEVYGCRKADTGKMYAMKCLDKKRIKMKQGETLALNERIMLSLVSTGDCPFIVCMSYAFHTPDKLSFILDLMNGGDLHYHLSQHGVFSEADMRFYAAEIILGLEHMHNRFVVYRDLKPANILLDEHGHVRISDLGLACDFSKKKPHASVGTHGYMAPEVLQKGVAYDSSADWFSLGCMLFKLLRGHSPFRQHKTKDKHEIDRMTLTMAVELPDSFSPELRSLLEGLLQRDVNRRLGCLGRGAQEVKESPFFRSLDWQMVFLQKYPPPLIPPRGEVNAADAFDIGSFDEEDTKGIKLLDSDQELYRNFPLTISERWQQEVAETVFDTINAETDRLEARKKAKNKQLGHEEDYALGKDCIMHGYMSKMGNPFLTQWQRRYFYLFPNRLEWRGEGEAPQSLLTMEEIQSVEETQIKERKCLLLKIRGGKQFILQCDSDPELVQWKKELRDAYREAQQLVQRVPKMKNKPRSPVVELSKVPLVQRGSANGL
The test is described as follows: luciferase-based (Kinase-Glo) biochemical kinase inhibition assay, hGRK-2. The note with it: luciferase assay, casein substrate, 10 μM ATP; read-out: GRK-2 inhibition, Ki class. The gist of the method: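 Final conditions: 50 nM hGRK2, 20 μM casein, 10 μM ATP and 50 μM test compound in 4.5% DMSO, in HEPES pH 7.5 buffer with MgCl2, orthovanadate, CHAPS, BSA and DTT. Incubation ran 90-120 min at room temperature, targeting 20-30% ATP consumption. Remaining ATP was read by luminescence with diluted Kinase-Glo containing 0.01% trypan blue.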
For orientation: Kinase-Glo measures the ATP left after a reaction by luminescence.

For the next test, the target named is GRK-5 (Homo sapiens, UniProt P34947). The test is described as follows: luciferase-based biochemical kinase inhibition assay, GRK-5. The note with it: same luciferase assay; read-out: GRK-5 inhibition, Ki class. The protocol: The inhibition of G-protein-coupled receptor kinases including hGRK-2 was determined for the hydrazide compounds using a biochemical assay. […] The inhibition of GRK-3, GRK-5 and GRK-6 was also determined using the same assay for some of the hydrazide derivatives.
Chain of GRK-5 (P34947 whole entry, species assumed): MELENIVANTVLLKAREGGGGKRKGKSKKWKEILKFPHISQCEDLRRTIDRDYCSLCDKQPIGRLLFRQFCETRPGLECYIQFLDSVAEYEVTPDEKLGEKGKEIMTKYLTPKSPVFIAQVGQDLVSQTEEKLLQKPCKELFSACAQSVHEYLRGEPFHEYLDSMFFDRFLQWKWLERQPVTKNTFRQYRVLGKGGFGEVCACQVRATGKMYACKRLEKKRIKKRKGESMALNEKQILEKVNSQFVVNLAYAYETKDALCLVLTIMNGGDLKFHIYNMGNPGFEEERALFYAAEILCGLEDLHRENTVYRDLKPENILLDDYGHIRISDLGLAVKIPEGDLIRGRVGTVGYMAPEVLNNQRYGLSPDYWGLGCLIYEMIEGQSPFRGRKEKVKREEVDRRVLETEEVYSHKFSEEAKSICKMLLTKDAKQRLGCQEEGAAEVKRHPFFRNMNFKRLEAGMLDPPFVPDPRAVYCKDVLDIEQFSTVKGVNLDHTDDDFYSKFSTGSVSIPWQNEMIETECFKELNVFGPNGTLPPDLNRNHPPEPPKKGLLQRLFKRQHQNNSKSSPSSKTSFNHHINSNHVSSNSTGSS
(§1) The protein kinase inhibition was determined using a biochemical assay utilizing the light emission of a luciferase reaction. The luciferase-based assay operates on the following reaction principles: [drawing 10]
(§2) An inhibitor of GRK-2 will increase in the amount of ATP in solution, as shown. Thus, an inhibitor of GRK-2 will drive the luciferase reaction to the right, resulting in more light emitted. The amount of light emitted is proportional to the inhibition resulting from the GRK-2 inhibitor. The luciferase-based assay was also used to test some of the hydrazides for the inhibition properties towards other kinases.

A further test concerns the target T2, GRK-3 (Homo sapiens, UniProt P35626).
T2 sequence (P35626 1-688): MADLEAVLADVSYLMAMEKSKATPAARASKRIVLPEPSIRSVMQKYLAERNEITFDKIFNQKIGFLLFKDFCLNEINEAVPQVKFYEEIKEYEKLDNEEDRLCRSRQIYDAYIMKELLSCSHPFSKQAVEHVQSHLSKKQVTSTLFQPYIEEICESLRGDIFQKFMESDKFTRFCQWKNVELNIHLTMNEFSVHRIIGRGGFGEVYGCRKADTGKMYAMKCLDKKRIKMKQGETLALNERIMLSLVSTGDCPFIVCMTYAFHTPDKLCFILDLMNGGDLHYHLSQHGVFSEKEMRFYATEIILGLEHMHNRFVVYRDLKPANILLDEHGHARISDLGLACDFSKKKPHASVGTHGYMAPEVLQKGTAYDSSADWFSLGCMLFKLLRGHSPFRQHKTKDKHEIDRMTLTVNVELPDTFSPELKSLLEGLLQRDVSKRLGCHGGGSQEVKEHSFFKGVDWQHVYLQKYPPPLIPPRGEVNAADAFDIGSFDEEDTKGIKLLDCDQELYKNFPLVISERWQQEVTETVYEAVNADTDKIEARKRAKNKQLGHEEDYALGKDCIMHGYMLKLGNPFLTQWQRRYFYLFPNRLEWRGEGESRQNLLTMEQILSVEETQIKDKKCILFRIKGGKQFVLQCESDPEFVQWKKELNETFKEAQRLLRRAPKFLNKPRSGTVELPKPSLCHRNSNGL
The test is described as follows: luciferase-based biochemical kinase inhibition assay, GRK-3. The note with it: same luciferase assay; read-out: GRK-3 inhibition, Ki class. The protocol: (§3) The inhibition of G-protein-coupled receptor kinases including hGRK-2 was determined for the hydrazide compounds using a biochemical assay. The inhibition of GRK-3, GRK-5 and GRK-6 was also determined using the same assay for some of the hydrazide derivatives.
as §1, §2

A further test addresses GRK-6 (Homo sapiens, UniProt P43250). The test is described as follows: luciferase-based biochemical kinase inhibition assay, GRK-6. Particulars: same luciferase assay; read-out: GRK-6 inhibition, Ki class. As to the method: as §3, §1, §2

Each structure is given as a SMILES string.

Chain of GRK-6 (P43250 whole entry, species assumed): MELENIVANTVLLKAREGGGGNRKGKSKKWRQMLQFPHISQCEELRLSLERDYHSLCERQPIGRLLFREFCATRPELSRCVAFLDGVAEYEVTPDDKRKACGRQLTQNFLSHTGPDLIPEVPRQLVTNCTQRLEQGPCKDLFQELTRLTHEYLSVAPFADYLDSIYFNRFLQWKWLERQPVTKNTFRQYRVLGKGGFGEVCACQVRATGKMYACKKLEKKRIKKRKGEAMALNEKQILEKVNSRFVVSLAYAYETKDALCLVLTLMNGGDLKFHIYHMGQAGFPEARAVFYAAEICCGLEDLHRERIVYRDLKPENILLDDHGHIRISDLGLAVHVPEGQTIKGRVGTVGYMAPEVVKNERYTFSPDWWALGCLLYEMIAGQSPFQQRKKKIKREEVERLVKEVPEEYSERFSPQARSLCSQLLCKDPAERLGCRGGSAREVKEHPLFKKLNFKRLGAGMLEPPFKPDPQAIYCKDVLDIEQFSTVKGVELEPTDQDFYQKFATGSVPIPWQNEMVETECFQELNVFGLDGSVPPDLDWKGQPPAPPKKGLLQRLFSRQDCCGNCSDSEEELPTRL

Regarding `COc1cc(/C=N/NC(=O)CNc2cccc(Cl)c2)nc(OC)n1`, in test [1], the “PTM Cell Assay Result” value was “+”.
With `O=C(CNc1cccc(C(=O)Nc2ccccc2)c1)N/N=C/c1ccncc1` [drawing 113], the “PTM Cell Assay Result” value in test [1] is “++”.
For `COc1ccc(Oc2cccc(NCC(=O)N/N=C/c3ccncc3)c2)cc1`, the “PTM Cell Assay Result” value in test [1] was “+”.
Same read-out and setting: the same measure for `CNC(=O)c1cccc(NCC(=O)N/N=C/c2c(Cl)cncc2Cl)c1` [drawing 118]: “+”.
With `O=C(CNc1cccc(Cl)c1)N/N=C/c1ccncc1` [Example 37, (3-Chloro-phenylamino)-acetic acid [1-pyridin-4-yl-meth-(E)-ylidene]-hydrazide], the Ki – broadly, a dissociation constant, usually derived from enzyme kinetics or from competition with a known ligand – was 100 to 1000 nM on hGRK-2, greater than 10000 nM at GRK-5 and 1000 to 10000 nM at GRK-3.
Taken in the same sequence, the figures for `C/C(=N\NC(=O)CNc1cccc(OCc2ccccc2)c1)c1ccncc1` [Example 87, (3-Benzyloxy-phenylamino)-acetic acid [1-pyridin-4-yl-eth-(E)-ylidene]-hydrazide] were 100 to 1000 nM, greater than 10000 nM and 100 to 1000 nM.
For `O=C(CNc1cccc(C(=O)Nc2ccccc2)c1)N/N=C/c1c(Cl)cncc1Cl` [drawing 112], the “PTM Cell Assay Result” value in test [1] is given as “++”.
Consider `NS(=O)(=O)c1cccc(NCC(=O)N/N=C/c2ccncc2)c1` [Example 63, 3-{[1-Pyridin-4-yl-meth-(E)-ylidene-hydrazinocarbonylmethyl]-amino}-benzenesulfonamide], for which the Ki on hGRK-2 is 100 to 1000 nM; at GRK-5, greater than 10000 nM; at GRK-3, 1000 to 10000 nM.
Taken in the same sequence, the figures for `NS(=O)(=O)c1cccc(NCC(=O)N/N=C/c2c(Cl)cncc2Cl)c1` [Example 22, 3-{[1-(3,5-Dichloro-pyridin-4-yl)-meth-(E)-ylidene-hydrazinocarbonylmethyl]-amino}-benzenesulfonamide] were 100 to 1000 nM, 1000 to 10000 nM and 1000 to 10000 nM.
On to `C/C(=N\NC(=O)CNc1cccc(C(=O)Nc2ccccc2)c1)c1ccncc1` [Example 90, N-Phenyl-3-{[1-pyridin-4-yl-eth-(E)-ylidene-hydrazinocarbonylmethyl]-amino}-benzamide], for which the Ki on hGRK-2 was 100 to 1000 nM; on GRK-5, greater than 10000 nM; at GRK-3, 100 to 1000 nM.
`O=C(CNc1cccc(C(=O)Nc2cccnc2)c1)N/N=C/c1ccncc1` [drawing 114]: the “PTM Cell Assay Result” value in test [1] was “++”.
For `C/C(=N\NC(=O)CNc1cccc(Oc2ccccc2)c1)c1ccncc1` [Example 89, (3-Phenoxy-phenylamino)-acetic acid [1-pyridin-4-yl-eth-(E)-ylidene]-hydrazide], the figures for the Ki at hGRK-2, on GRK-5 and on GRK-3 were 100 to 1000 nM, greater than 10000 nM and 100 to 1000 nM, respectively.
For the compound `COc1cccc(NCC(=O)N/N=C/c2c(Cl)cncc2Cl)c1` [Example 5, (3-Methoxy-phenylamino)-acetic acid [1-(3,5-dichloro-pyridin-4-yl)-meth-(E)-ylidene]-hydrazide], the inhibitory constant (Ki) at hGRK-2 is 10 to 100 nM; on GRK-3, 10 to 100 nM; on GRK-6, greater than 10000 nM.
For the compound `O=C(CNc1cccc(Cl)c1)N/N=C/c1c(Cl)cncc1Cl` [Example 1, (3-Chloro-phenylamino)-acetic acid [1-(3,5-dichloro-pyridin-4-yl)-meth-(E)-ylidene]-hydrazide], the inhibition constant Ki at hGRK-2, at GRK-5 and at GRK-3 was 1000 to 10000 nM in each case.
Consider `O=C(CNc1cccc(C(=O)NCCN2CCOCC2)c1)N/N=C/c1c(Cl)cncc1Cl` [drawing 116], for which, in test [1], the “PTM Cell Assay Result” value is recorded as “+”.
As for `O=C(CNc1cccc(C(=O)Nc2ccccc2)c1)N/N=C/c1c(Cl)cncc1Cl` [Example 97, 3-{[1-(3,5-Dichloro-pyridin-4-yl)-meth-(E)-ylidene-hydrazinocarbonylmethyl]-amino}-N-phenyl-benzamide], the Ki lay within 100 to 1000 nM on hGRK-2, 1000 to 10000 nM on GRK-5 and 10 to 100 nM at GRK-3.
Taken in the same sequence, the figures for `O=C(CNc1cccc(F)c1)N/N=C/c1c(Cl)cncc1Cl` [Example 4, (3-Fluoro-phenylamino)-acetic acid [1-(3,5-dichloro-pyridin-4-yl)-meth-(E)-ylidene]-hydrazide] were 100 to 1000 nM, 1000 to 10000 nM and 1000 to 10000 nM.
As to `C/C(=N\NC(=O)CNc1cccc(C(=O)Nc2ccccc2)c1)c1ccncc1` [drawing 119], in test [1], the “PTM Cell Assay Result” value is given as “+”.
As for `CSc1cccc(NCC(=O)N/N=C/c2c(Cl)cncc2Cl)c1` [Example 10, (3-Methylsulfanyl-phenylamino)-acetic acid [1-(3,5-dichloro-pyridin-4-yl)-meth-(E)-ylidene]-hydrazide], the values for the inhibition constant (Ki) on hGRK-2, at GRK-5 and on GRK-3 were 100 to 1000 nM, 1000 to 10000 nM and 100 to 1000 nM, respectively.
Turning to `CCOc1cccc(NCC(=O)N/N=C/c2c(Cl)cncc2Cl)c1` [Example 21, (3-Ethoxy-phenylamino)-acetic acid [1-(3,5-dichloro-pyridin-4-yl)-meth-(E)-ylidene]-hydrazide], the inhibition constant Ki was 100 to 1000 nM on hGRK-2, greater than 10000 nM on GRK-5 and greater than 10000 nM at GRK-3.
With `O=C(CNc1ccc(Oc2ccccc2)cc1)N/N=C/c1c(Cl)cncc1Cl`, in test [1], the “PTM Cell Assay Result” value is listed as “+”.
As to `CNC(=O)c1cccc(NCC(=O)N/N=C/c2ccncc2)c1` [Example 52, N-Methyl-3-{[1-pyridin-4-yl-meth-(E)-ylidene-hydrazinocarbonylmethyl]-amino}-benzamide], the Ki is 100 to 1000 nM on hGRK-2, greater than 10000 nM on GRK-5 and 100 to 1000 nM at GRK-3.
